Laboratory results from patent publication US5808060A, “Fused isoindolones” (Cephalon, Inc., priority 1996, dated 1998).

Legend:
protein kinase C = assay: PKC Activity Inhibition Assay; assay type: biochemical
Procedure: Fused isoindolones inhibited the activity of protein kinase C (Table VI). The protein kinase C assay has been disclosed (Murakata et al., U.S. Pat. No. 4,923,986; Kikkawa et al., J. Biol. Chem. 257: 13341-13348 (1982)). The assay was performed with several concentrations of fused isoindolones. The concentration at which protein kinase C was 50% inhibited (IC50) was determined.

[1] = system: dissociated rat embryonic spinal cord culture (ChAT activity); assay: Spinal Cord ChAT Activity Assay; assay type: cell-based; details: after 2-3 hour plating period; single application; ChAT measured 48 hours later; control cultures not treated
Description: As noted, ChAT is a specific biochemical marker for functional cholinergic neurons. Cholinergic neurons represent the major cholinergic input into the hippocampal formation, olfactory nucleus, interpeduncular nucleus, cortex, amygdala, and parts of the thalamus. In the spinal cord, the motor neurons are cholinergic neurons which contain ChAT (Phelps et al., J. Comp. Neurol. 273: 459-472 (1988)). ChAT activity has been used to study the effects of neurotrophins (e.g., NGF or NT-3) on the survival and/or function of cholinergic neurons. The ChAT assay also serves as an indication of the regulation of ChAT levels within cholinergic neurons.
Fused isoindolone derivatives increased ChAT activity in the dissociated rat embryonic spinal cord culture assay (FIG. 1). […]
Methods: Fetal rat spinal cord cells were dissociated, and experiments were performed as described (Smith et al., J. Cell Biology 101: 1608-1621 (1985); Glicksman et al., J. Neurochem. 61: 210-221 (1993)). […] ChAT activity was measured after 2 days in vitro using a modification of the Fonnum procedure (Fonnum, J. Neurochem. 24: 407-409 (1975)) according to McManaman et al. and Glicksman et al. (McManaman et al., Developmental Biology 125: 311-320 (1988); Glicksman et al., J. Neurochem. 61: 210-221 (1993)).

trkA tyrosine kinase = trkA tyrosine kinase (Homo sapiens, UniProt P04629); assay: trkA Tyrosine Kinase Activity Inhibition Assay (ELISA); assay type: biochemical; details: PLCγ/pGEX substrate, 16 μM ATP, 37° C., 15 min, read-out: trk A INHIBITION IC50
Chain of trkA tyrosine kinase (P04629 33-796): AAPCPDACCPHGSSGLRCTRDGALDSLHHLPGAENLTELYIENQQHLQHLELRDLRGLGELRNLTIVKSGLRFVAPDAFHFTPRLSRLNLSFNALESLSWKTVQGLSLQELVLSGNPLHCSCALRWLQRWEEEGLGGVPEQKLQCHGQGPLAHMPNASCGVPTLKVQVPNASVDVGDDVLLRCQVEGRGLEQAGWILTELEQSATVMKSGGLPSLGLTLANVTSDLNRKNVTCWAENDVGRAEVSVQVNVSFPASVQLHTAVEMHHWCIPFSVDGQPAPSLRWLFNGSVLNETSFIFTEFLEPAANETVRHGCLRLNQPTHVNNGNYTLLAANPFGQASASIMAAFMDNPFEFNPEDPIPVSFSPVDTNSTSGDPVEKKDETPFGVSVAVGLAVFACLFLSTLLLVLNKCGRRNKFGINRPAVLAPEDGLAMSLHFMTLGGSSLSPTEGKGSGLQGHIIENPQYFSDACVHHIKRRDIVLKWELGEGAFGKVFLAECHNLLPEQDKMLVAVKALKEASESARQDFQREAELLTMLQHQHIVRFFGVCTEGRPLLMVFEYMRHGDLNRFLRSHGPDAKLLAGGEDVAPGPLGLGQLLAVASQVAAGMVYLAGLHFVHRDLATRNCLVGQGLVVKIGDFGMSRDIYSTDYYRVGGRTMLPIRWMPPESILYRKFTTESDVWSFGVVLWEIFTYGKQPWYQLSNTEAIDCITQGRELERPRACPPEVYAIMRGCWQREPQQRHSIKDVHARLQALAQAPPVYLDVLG
Procedure: Fused isoindolones inhibited trkA tyrosine kinase activity as determined by ELISA. trkA is a high affinity receptor for neurotrophins. Fused isoindolones were added to 96-well microtiter plates that were previously coated with a phosphorylation substrate (phospholipase C-γ (PLCγ)/pGEX fusion protein) (see Rotin, et al., 11 EMBO J. 559, 1992). These compounds were then tested for the ability to inhibit substrate phosphorylation by the trkA tyrosine kinase.
Methods: 96-well ELISA plates (Nunc) were coated with 100 μl/well of the phosphorylation substrate (40 μg/ml) PLCγ/pGEX fusion protein) in 20 mM Tris, pH 7.6, 137 mM NaCl, and 0.02% NaN3 overnight at 4° C. […] Plates were washed three times with TBST, followed by two washes with TBS (TBST sans Tween-20). Fused pyrrolocarbozoles were then added at various concentrations to a reaction mixture (50 mM HEPES, pH 7.4, 5 mM MnCl2, 5 mM MgCl2, 140 mM NaCl, 16 μM ATP, and 15 ng trkA in a total volume of 100 μL.). As a negative control, 100 mM EDTA was included in the reaction solution. The plates were then incubated at 37° C. for 15 min. The detection antibody, monoclonal anti-phosphotyrosine antibody (UBI), was added at a dilution of 1:2000 in TBST, and incubated for 1 hour at 37° C. […] The colored product was read at 490 nm in a microplate reader (Biotek).

[2] = system: basal forebrain cultures (ChAT activity); assay: Basal Forebrain ChAT Activity Assay; assay type: cell-based, rat; details: preliminary assays; ChAT assessed 5 days after plating
Procedure: Fused isoindolone derivatives were tested for the ability to increase ChAT activity of basal forebrain cultures.
Methods: The basal forebrain was dissected from rat embryos (day 17 or 18 embryos) and the cells were dissociated with a neutral protease (Dispase™, Collaborative Research). Neurons were plated at a density of 5×10^4 cells/well (1.5×10^5 cells/cm^2) in poly-l-ornithine and laminin coated plates. Cells were cultured in serum-free N2 medium containing 0.05% BSA at 37° C. in a humidified atmosphere, 5% CO2 /95% air. ChAT activity was assessed 5 days after plating by using the ChAT assay as described in Example III(A)(1).

SMILES | IC50 (protein kinase C) [nM] | increased ChAT activity over control cultures (spinal cord) [1] [% over control] | IC50 (trkA tyrosine kinase) [nM] | effect on basal forebrain ChAT activity [2]
O=C1NC(=O)c2c1c1c(c3c2-c2ccccc2C3)Cc2ccccc2-1 [Compound I-1, 1H-Indenyl[2,3-c]-1H-indenyl[2,3-e]isoindol-1,3-dione] | 650 |  |  | 
O=C1NCc2c1c1c(c3c2-c2ccccc2C3)Cc2ccccc2-1 [Compound I-2, 1H-Indenyl[2,3-c]-1H-indenyl[2,3-e]-3H-isoindol-1-one] | 2000 | 150 | 190 | 
O=C1NC(=O)c2c1c1c3ccccc3sc1c1sc3ccccc3c21 [Compound I-3, Benzothieno[2,3-c]benzothieno[2,3-e]isoindol-1,3-dione] |  |  |  | did not increase ChAT activity
O=C1NCc2c1c1c3ccccc3sc1c1sc3ccccc3c21 [Compound I-4, Benzothieno[2,3-c]benzothieno[2,3-e]isoindol-1-one] |  |  |  | did not increase ChAT activity
